The assay has as its target T1, haematopoietic prostaglandin D synthase (H-PGDS) (Homo sapiens, UniProt O60760).
T1 construct: Full length human H-PGDS cDNA (Invitrogen Ultimate ORF IOH13026) was amplified by PCR; 6-His (N); TEV protease cleavage site (N); made in house; host or cells: E. coli BL21 (DE3*)
The assay is described as follows: H-PGDS RapidFire high throughput mass spectrometry assay (conversion of PGH2 to PGD2). To be noted: 10 nM H-PGDS, PGH2 formed in situ by COX-2 from arachidonic acid; four parameter curve fit; read-out: Potency Range (mean pIC50) (converted). Type of assay: biochemical. Put shortly: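 His-tagged full-length human H-PGDS from E. coli converts PGH2, generated in situ at ~10 μM from arachidonic acid by FLAG-tagged human COX-2 from Sf9 cells. RapidFire SPE-triple quadrupole MS measures PGD2 against PGF2α as substrate surrogate; percent conversion is calculated.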

T1 sequence (O60760 whole entry): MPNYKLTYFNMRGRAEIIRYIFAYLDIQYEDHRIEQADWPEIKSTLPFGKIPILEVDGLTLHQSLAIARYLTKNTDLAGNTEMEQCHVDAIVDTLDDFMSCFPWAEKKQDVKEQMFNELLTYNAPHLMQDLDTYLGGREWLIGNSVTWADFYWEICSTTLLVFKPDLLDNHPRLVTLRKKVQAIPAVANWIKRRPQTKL

Take `CC(C)(O)[C@H]1CC[C@H](NC(=O)c2cnc3nc(C4CC4)ccc3c2)CC1` [Example 21, 7-Cyclopropyl-N-((trans)-4-(2-hydroxypropan-2-yl)cyclohexyl)-1,8-naphthyridine-3-carboxamide]: the IC50 is < 10 nM.

These data come from US11149035B2, “Chemical compounds as H—PGDS inhibitors” (GlaxoSmithKline Intellectual Property Development Limited, priority 2017, dated 2021).
